Experimental findings from the OligoGym collection are described below.

Where “and” joins values, the source holds several entries; their conditions need not be identical. Equal values may be shown once. After the bases stand the sugars from the 5' end (letter, count) and the backbone: PS all phosphorothioate, else s phosphorothioate and o phosphodiester by linkage. Methylation of C is not given here. k = constrained ethyl (cEt); d = 2'-deoxy (DNA)

This data set addresses MALAT1. To be noted: ASO, A431, 0.005 µM.

Regarding ATGGCGGACTTTCTCC (sugars k3 d10 k3, PS), the target mRNA inhibition is 29%.

Consider ATCAGCTTCCGCTAAG (sugars k3 d10 k3, PS), for which the target mRNA inhibition worked out at 4%.

Take TCACCAAATTGCACTC (sugars k3 d10 k3, PS): the target mRNA inhibition came out at 21%.

ACAGGAACAAGTCCTA (sugars k3 d10 k3, PS): the target mRNA inhibition came out at 10%.

Regarding CTCTGATCATAATCTC (sugars k3 d10 k3, PS), the target mRNA inhibition stood at 35%.

For CCCGCCTCAGTTACAC (sugars k3 d10 k3, PS), the target mRNA inhibition was determined as 4%.

With ACCTTGAAACCGATTA (sugars k3 d10 k3, PS), the target mRNA inhibition is 45%.

Consider TACATGTTCCCACCCA (sugars k3 d10 k3, PS), for which the target mRNA inhibition is 39%.

In the case of GAGGCAAGTCCTCATT (sugars k3 d10 k3, PS), the target mRNA inhibition amounted to 11%.

On to GACAGCTAAGATAGCA (sugars k3 d10 k3, PS), for which the target mRNA inhibition worked out at 12%.

With GATTAGAGAAGAATCC (sugars k3 d10 k3, PS), the target mRNA inhibition stood at 14%.

Take AGACCAACTAAGCGAA (sugars k3 d10 k3, PS): the target mRNA inhibition worked out at 38%.

Take ACCTGGGTCAGCTGTC (sugars k3 d10 k3, PS): the target mRNA inhibition was 14%.

As for CGGGATCAGAACAGTA (sugars k3 d10 k3, PS), the target mRNA inhibition stood at 24%.

Turning to ATACTATTGTCCCATA (sugars k3 d10 k3, PS), the target mRNA inhibition came out at 31%.

Turning to TATTTTAAACGGGTCA (sugars k3 d10 k3, PS), the target mRNA inhibition was 3%.

On to GCCCACCCTCTAAGAG (sugars k3 d10 k3, PS), for which the target mRNA inhibition turned out to be 18%.

In the case of CTCCATGGTTGTCCTA (sugars k3 d10 k3, PS), the target mRNA inhibition turned out to be 39%.

On to ATCAAGGCACTGATCA (sugars k3 d10 k3, PS), for which the target mRNA inhibition is 23%.

For the sequence GCTACAACAAGTAAGC (sugars k3 d10 k3, PS), the target mRNA inhibition was 9%.

For AGGGATTTGAACCCCG (sugars k3 d10 k3, PS), the target mRNA inhibition is -3%.

Consider GAAGGATGAAATGCCT (sugars k3 d10 k3, PS), for which the target mRNA inhibition was found to be 7%.

TCCTCCGTGTGGTTGC (sugars k3 d10 k3, PS): the target mRNA inhibition was determined as 18%.

Regarding GCAGATTCTGTGTTAT (sugars k3 d10 k3, PS), the target mRNA inhibition is -2%.

Turning to GGATCATTAAGCCACT (sugars k3 d10 k3, PS), the target mRNA inhibition was 15%.

With GTCTGAAGAATACCAT (sugars k3 d10 k3, PS), the target mRNA inhibition came out at 47%.

Turning to GAAAGCGAGTTCAAGT (sugars k3 d10 k3, PS), the target mRNA inhibition was -1%.

Take CACTTATCCCTAACAT (sugars k3 d10 k3, PS): the target mRNA inhibition was found to be 10%.

As for GTATGACATATAATCT (sugars k3 d10 k3, PS), the target mRNA inhibition is 55% and 77%.

Regarding TGTAAAACATTGCCTA (sugars k3 d10 k3, PS), the target mRNA inhibition was -7%.

For GTTCGAGAAATCGGAG (sugars k3 d10 k3, PS), the target mRNA inhibition was determined as 15%.

Turning to CCAGCATTACAGTTCT (sugars k3 d10 k3, PS), the target mRNA inhibition is 42%.

CTACTGGCTGCATCGA (sugars k3 d10 k3, PS): the target mRNA inhibition was determined as 54%.

On to TTCCTTTCATAGAGCC (sugars k3 d10 k3, PS), for which the target mRNA inhibition was 70% and 88%.

Regarding ATTATACATCAAGGAT (sugars k3 d10 k3, PS), the target mRNA inhibition turned out to be 17%.

For GTTTACCACCTTTTGA (sugars k3 d10 k3, PS), the target mRNA inhibition stood at 3%.

Regarding CCAATGGACATCTCTT (sugars k3 d10 k3, PS), the target mRNA inhibition was 40%.

As to TTCCTTATTTAGAGGG (sugars k3 d10 k3, PS), the target mRNA inhibition was 14%.

CCTAGCTTCACCACCA (sugars k3 d10 k3, PS): the target mRNA inhibition came out at 33%.

Consider AACTTATCTGCGGTTT (sugars k3 d10 k3, PS), for which the target mRNA inhibition came out at 6%.

Turning to AAAGATTTGAGCTGCA (sugars k3 d10 k3, PS), the target mRNA inhibition was -4%.

As for TAGACCAACTAAGCGA (sugars k3 d10 k3, PS), the target mRNA inhibition is -9%.

Turning to CCTTTACACCTCAGTA (sugars k3 d10 k3, PS), the target mRNA inhibition stood at 13%.

On to ACCCAAAAGCCCTCTC (sugars k3 d10 k3, PS), for which the target mRNA inhibition is 13%.

For the sequence TATTCCAGGATTAATG (sugars k3 d10 k3, PS), the target mRNA inhibition stood at 29%.

Take TTAAATGACGCAATTC (sugars k3 d10 k3, PS): the target mRNA inhibition came out at 4%.

Regarding TGGCGATGTGGCAGAG (sugars k3 d10 k3, PS), the target mRNA inhibition was found to be 35%.

For the sequence ATTCAACTGGAAGCTC (sugars k3 d10 k3, PS), the target mRNA inhibition was 17%.

Turning to GTGGAAAGATTTGAGC (sugars k3 d10 k3, PS), the target mRNA inhibition was found to be 17%.

In the case of TACTCTAATCACTGTC (sugars k3 d10 k3, PS), the target mRNA inhibition worked out at 15%.

As for ACGGATTTTTACCAAC (sugars k3 d10 k3, PS), the target mRNA inhibition came to 34%.

As for CCACAGGAACAAGTCC (sugars k3 d10 k3, PS), the target mRNA inhibition was -5%.

Turning to ACTCCCCCCCGCCTCA (sugars k3 d10 k3, PS), the target mRNA inhibition came to 26%.

On to ACTGATTTTAAGGTTG (sugars k3 d10 k3, PS), for which the target mRNA inhibition worked out at 26%.

As for GCTGAAATCTATTCAA (sugars k3 d10 k3, PS), the target mRNA inhibition was -159%.

With TTAATGTAGTGTAACA (sugars k3 d10 k3, PS), the target mRNA inhibition was found to be 30%.

Turning to GATTTTAAGGTTGCAT (sugars k3 d10 k3, PS), the target mRNA inhibition is 55% and 38%.

With TTTATAGACGGAGAAC (sugars k3 d10 k3, PS), the target mRNA inhibition is -6%.

On to GATTATGGATCATGCC (sugars k3 d10 k3, PS), for which the target mRNA inhibition was 47% and 61%.

Take AGTCAAGCTCCTGACA (sugars k3 d10 k3, PS): the target mRNA inhibition stood at 13%.

As to TTAGAGGGCCTCTATT (sugars k3 d10 k3, PS), the target mRNA inhibition came to 3%.

As to GCATGTAAGAATTAAG (sugars k3 d10 k3, PS), the target mRNA inhibition came to 28%.

For the sequence CGCTTTCCCTGTGGCC (sugars k3 d10 k3, PS), the target mRNA inhibition is -2%.

With ACATGCAATACTGCAG (sugars k3 d10 k3, PS), the target mRNA inhibition was determined as 3%.

For ATCATTAAGCCACTTC (sugars k3 d10 k3, PS), the target mRNA inhibition was 53% and 69%.

Take AGAACAACTCGCATCA (sugars k3 d10 k3, PS): the target mRNA inhibition is 12%.

On to CCCTGTTAAGACCATC (sugars k3 d10 k3, PS), for which the target mRNA inhibition turned out to be 21%.

Regarding TCAAACTAAGCTACTA (sugars k3 d10 k3, PS), the target mRNA inhibition is -1%.

AGGCAAGTCCTCATTA (sugars k3 d10 k3, PS): the target mRNA inhibition worked out at 16%.

Regarding ACCCAGTTTGTCAATA (sugars k3 d10 k3, PS), the target mRNA inhibition worked out at 10%.

Turning to CTGATAACGAAGAGAT (sugars k3 d10 k3, PS), the target mRNA inhibition was -3%.

On to ATCAGAACAGTACTGC (sugars k3 d10 k3, PS), for which the target mRNA inhibition was found to be 35%.

Turning to AAAAAAGGCTTAGCGC (sugars k3 d10 k3, PS), the target mRNA inhibition is 0%.

For TCGGTGCCTTTAGTGA (sugars k3 d10 k3, PS), the target mRNA inhibition was found to be 29%.

As to GCATTCTAATAGCAGC (sugars k3 d10 k3, PS), the target mRNA inhibition is 10% and 21%.

Take AACTCCCCCCCGCCTC (sugars k3 d10 k3, PS): the target mRNA inhibition stood at 6%.

As to CTTGTGTTCTCTTGAG (sugars k3 d10 k3, PS), the target mRNA inhibition was 13%.

Regarding ATTCTTTTCTTCGCCT (sugars k3 d10 k3, PS), the target mRNA inhibition was determined as 48%.

On to TTACACCTCAGTACGA (sugars k3 d10 k3, PS), for which the target mRNA inhibition turned out to be 15%.

For the sequence TTAAGAGAAGCCCAGG (sugars k3 d10 k3, PS), the target mRNA inhibition was 24%.

As to TATAAGGTCAATAGTG (sugars k3 d10 k3, PS), the target mRNA inhibition came out at 38%.

As to GATCCAAGCTACTGGC (sugars k3 d10 k3, PS), the target mRNA inhibition was found to be 18%.

As for CTGAGTGAAGTGTACT (sugars k3 d10 k3, PS), the target mRNA inhibition came to 48%.

With ATTCCCACCCAAAAGC (sugars k3 d10 k3, PS), the target mRNA inhibition is 5%.

With ACTTTCCATTACGCAA (sugars k3 d10 k3, PS), the target mRNA inhibition amounted to 9%.

For the sequence CCCCCAACTGCTTGCA (sugars k3 d10 k3, PS), the target mRNA inhibition was 29%.

In the case of CACCTTCGGTTTAATC (sugars k3 d10 k3, PS), the target mRNA inhibition amounted to 20%.

On to CGCCAACACAGTTTGC (sugars k3 d10 k3, PS), for which the target mRNA inhibition is 12%.

With CTGCACTGTGCTGTAC (sugars k3 d10 k3, PS), the target mRNA inhibition is -5%.

Regarding CTATATTTAAGGCCTT (sugars k3 d10 k3, PS), the target mRNA inhibition was 26%.

In the case of GAACAGTACTGCATTT (sugars k3 d10 k3, PS), the target mRNA inhibition came out at 28%.

For ATGGAACTTGAATGCA (sugars k3 d10 k3, PS), the target mRNA inhibition amounted to 1%.

TCTGATAACGAAGAGA (sugars k3 d10 k3, PS): the target mRNA inhibition is 21%.

With TCCCCCCCGCCTCAGT (sugars k3 d10 k3, PS), the target mRNA inhibition stood at 16%.

Take CTCAGTTACACATCCA (sugars k3 d10 k3, PS): the target mRNA inhibition was 70% and 94%.

Consider TTAAAAAGGCTCGATG (sugars k3 d10 k3, PS), for which the target mRNA inhibition is 21%.

Take GTTTCCTAGCTTGTCT (sugars k3 d10 k3, PS): the target mRNA inhibition was found to be 57%.

In the case of TGCCATGGTTGATATT (sugars k3 d10 k3, PS), the target mRNA inhibition amounted to 37%.

On to TACGACTGCTTAAAAC (sugars k3 d10 k3, PS), for which the target mRNA inhibition stood at 5%.
